Experimental data taken from patent US20260285853A1, “COMPOUNDS AND METHODS FOR MODULATING SPLICING” (REMIX THERAPEUTICS INC., priority 2023, published 2026).
Where two headings read alike, the source gives them in different places.

Key:
Type in all cases: cell-based
HTT mRNA [1] = test: Splicing RT-qPCR assay (THP), Table 2A
[2] = system: SH-SY5Y (human neuroblastoma) cells; test: Cell viability, Cell Titer Glo 2.0 assay; conditions: read-out: Viability SHSY5Y.3 GI50
Method in brief: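 SH-SY5Y cells were exposed to serially diluted compounds in IMDM with 10% FBS and 0.1% DMSO for 72 hours at 37° C., 5% CO2. Viability was measured by CellTiter-Glo 2.0 luminescence, with medium-only wells as blank.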

HTT mRNA [3] = test: Gene panel canonical junction qPCR assay, decrease in CJ mRNA, Table 3
Method in brief: (§1)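 Canonical exon-junction (CJ) transcript measured by 5′ nuclease RT-qPCR, normalized to GAPDH, GUSB or PPIA and to DMSO control (2^(−ΔΔCt)). A673 or K562 cells treated 24 h at 37° C with an 11-point 3-fold dilution series, top 10 uM, DMSO ≤0.25%. IC50 from 4-parameter logistic fit of percentage CJ decrease.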

MYB mRNA [4] = test: as above
Method in brief: as §1

MYB mRNA [5] = test: Splicing RT-qPCR assay (THP), Table 2A
[6] = Table 2A (THP), AJ mRNA increase, read-out: HTT AJ (increase in alternative junction mRNA, AC50)
[7] = Table 2A (THP), CJ mRNA decrease, read-out: HTT CJ (decrease in canonical junction mRNA, IC50)
[8] = decrease in canonical junction (CJ) mRNA, gene panel qPCR, Table 3
[9] = Table 2A (THP), AJ mRNA increase, read-out: MYB AJ (increase in alternative junction mRNA, AC50)
[10] = Table 2A (THP), CJ mRNA decrease, read-out: MYB CJ (decrease in canonical junction mRNA, IC50)
[11] = Table 2A, THP, HTT alternative junction (AJ) mRNA, read-out: HTT AJ (AC50, increase in alternative junction mRNA)
[12] = Table 2A, THP, HTT canonical junction (CJ) mRNA, read-out: HTT CJ (IC50, decrease in canonical junction mRNA)
[13] = decrease in CJ mRNA levels, canonical junction qPCR, gene panel
[14] = Table 2A, THP, MYB alternative junction (AJ) mRNA, read-out: MYB AJ (AC50, increase in alternative junction mRNA)
[15] = Table 2A, THP, MYB canonical junction (CJ) mRNA, read-out: MYB CJ (IC50, decrease in canonical junction mRNA)

| IC50 (HTT mRNA [1]; [7]) [µM] | GI50 [2] [µM] | IC50 (HTT mRNA [3]; [8]) [µM] | IC50 (MYB mRNA [4]; [8]) [µM] | IC50 (MYB mRNA [5]; [10]) [µM] | IC50 (HTT mRNA [1]; [12]) [µM] | IC50 (HTT mRNA [3]; [13]) [µM] | IC50 (MYB mRNA [4]; [13]) [µM] | IC50 (MYB mRNA [5]; [15]) [µM] | SMILES | AC50 (HTT mRNA [1]; [6]) [µM] | AC50 (MYB mRNA [5]; [9]) [µM] | AC50 (HTT mRNA [1]; [11]) [µM] | AC50 (MYB mRNA [5]; [14]) [µM] |
| --- | --- | --- | --- | --- | --- | --- | --- | --- | --- | --- | --- | --- | --- |
| – | > 10 | – | – | – | > 10 | > 10 | > 10 | > 10 | CCNC1CCN(c2ccc(C(=O)Nc3cn4cc(C)nc(CC(=O)NC)c4n3)c3nn(C)cc23)CC1 [Compound 872, 4-[4-(ethylamino)-1-piperidyl]-2-methyl-N-[6-methyl-8-[2-(methylamino)-2-oxo-ethyl]imidazo[1,2-a]pyrazin-2-yl]indazole-7-carboxamide] | – | – | > 10 | > 10 |
| – | 0.1 to 1 | – | – | – | 0.1 to 1 | 0.1 to 1 | < 0.1 | < 0.1 | CCNC1CCN(c2cc(Br)c(C(=O)Nc3cn4cc(C)nc4c(F)c3OC)c3nn(C)cc23)CC1 [Compound 723] | – | – | 0.1 to 1 | < 0.1 |
| > 10 | > 10 | > 10 | > 10 | > 10 | – | – | – | – | CCNC1CCN(c2ccc(C(=O)Nc3cc(-n4ccccc4=O)c4nc(C)cn4c3)c3nn(C)cc23)CC1 [Compound 366, 4-[4-(ethylamino)-1-piperidyl]-2-methyl-N-[2-methyl-8-(2-oxo-1-pyridyl)imidazo[1,2-a]pyridin-6-yl]indazole-7-carboxamide] | > 10 | > 10 | – | – |
| > 10 | 1 to 10 | > 10 | 1 to 10 | 1 to 10 | – | – | – | – | Cc1cn2cc(NC(=O)c3ccc(N4CCC(NCC5CC5)CC4)c4cn(C)nc34)nc2c(C)n1 [Compound 575] | > 10 | 0.1 to 1 | – | – |
| > 10 | 0.1 to 1 | > 10 | < 0.1 | < 0.1 | – | – | – | – | CCNC1CCN(c2cc(F)c(C(=O)Nc3cn4cc(C)nc(Cl)c4n3)c3nn(C)cc23)CC1 [Compound 391, N-(8-chloro-6-methyl-imidazo[1,2-a]-pyrazin-2-yl)-4-[4-(ethylamino)-1-piperidyl]-6-fluoro-2-methyl-indazole-7-carboxamide] | > 10 | < 0.1 | – | – |
| – | > 10 | – | – | – | > 10 | > 10 | > 10 | > 10 | CCNC1CCN(c2ccc(C(=O)Nc3cn4ccnc(CNS(C)(=O)=O)c4n3)c3nn(C)cc23)CC1 [Compound 850] | – | – | > 10 | > 10 |
| – | > 10 | – | – | – | > 10 | > 10 | > 10 | > 10 | CC(=O)NCc1nc(C)cn2cc(NC(=O)c3ccc(N4CCC(NC5CC5)CC4)c4cn(C)nc34)nc12 [Compound 725, N-[8-(acetamidomethyl)-6-methyl-imidazo[1,2-a]pyrazin-2-yl]-4-[4-(cyclopropylamino)-1-piperidyl]-2-methyl-indazole-7-carboxamide] | – | – | > 10 | > 10 |
| > 10 | 1 to 10 | > 10 | 1 to 10 | 1 to 10 | – | – | – | – | CCNC1CCN(c2ccc(C(=O)Nc3cc4c(C)nc(C)cn4c3)c3nn(C)cc23)CC1 [Compound 345, N-(1,3-dimethylpyrrolo[1,2-a]pyrazin-7-yl)-4-[4-(ethylamino)-1-piperidyl]-2-methyl-indazole-7-carboxamide] | > 10 | > 10 | – | – |
| 0.1 to 1 | 0.1 to 1 | 0.1 to 1 | 0.1 to 1 | 0.1 to 1 | – | – | – | – | CNCC1CCN(c2ccc(C(=O)Nc3cn4cc(C)nc(C)c4n3)c3nn(C)cc23)CC1 [Compound 532] | 0.1 to 1 | 0.1 to 1 | – | – |

Further lines, the compound ahead of its results:

| SMILES | IC50 (HTT mRNA [1]; [7]) [µM] | GI50 [2] [µM] | IC50 (HTT mRNA [3]; [8]) [µM] | IC50 (MYB mRNA [4]; [8]) [µM] | IC50 (MYB mRNA [5]; [10]) [µM] | IC50 (HTT mRNA [1]; [12]) [µM] | IC50 (HTT mRNA [3]; [13]) [µM] | IC50 (MYB mRNA [4]; [13]) [µM] | IC50 (MYB mRNA [5]; [15]) [µM] | AC50 (HTT mRNA [1]; [6]) [µM] | AC50 (MYB mRNA [5]; [9]) [µM] | AC50 (HTT mRNA [1]; [11]) [µM] | AC50 (MYB mRNA [5]; [14]) [µM] |
| --- | --- | --- | --- | --- | --- | --- | --- | --- | --- | --- | --- | --- | --- |
| CCNC1CCN(c2cc(F)c(C(=O)Nc3nc4c(C)nc(C)cc4n3C)c3nn(C)cc23)CC1 [Compound 402, 4-(4-(ethylamino)-piperidin-1-yl)-6-fluoro-2-methyl-N-(1,4,6-trimethyl-1H-imidazo[4,5-c]pyridin-2-yl)-2H-indazole-7-carboxamide bis(2,2,2-trifluoroacetate)] | > 10 | > 10 | > 10 | > 10 | > 10 | – | – | – | – | > 10 | > 10 | – | – |
| CNCC1CCN(c2ccc(C(=O)Nc3cc4cn(C)nc4cc3OC)c3nn(C)cc23)C1 (stereo not shown) [Compound 538] | > 10 | 1 to 10 | > 10 | 0.1 to 1 | 0.1 to 1 | – | – | – | – | > 10 | 0.1 to 1 | – | – |
| CCNC1CCN(c2cc(F)c(C(=O)Nc3cn4cc(CO)nc(C)c4n3)c3nn(C)cc23)CC1 [Compound 379, 4-[4-(ethylamino)-1-piperidyl]-6-fluoro-N-[6-(hydroxymethyl)-8-methyl-imidazo[1,2-a]pyrazin-2-yl]-2-methyl-indazole-7-carboxamide] | > 10 | > 10 | > 10 | 1 to 10 | 1 to 10 | – | – | – | – | > 10 | 1 to 10 | – | – |
| COc1cc2nn(C)cc2cc1NC(=O)c1ccc(N2CCC3NCC3C2)c2cn(C)nc12 (stereo not shown) [Compound 542] | > 10 | > 10 | > 10 | 1 to 10 | 1 to 10 | – | – | – | – | > 10 | 0.1 to 1 | – | – |
| Cc1cn2cc(NC(=O)c3ccc(N4CC(C5CNC5)C4)c4cn(C)nc34)nc2c(C)n1 [Compound 498] | > 10 | > 10 | > 10 | > 10 | > 10 | – | – | – | – | > 10 | > 10 | – | – |
| C=CCNC1CCN(c2ccc(C(=O)Nc3cc(CNC4(C)COC4)c4nn(C)cc4c3)c3nn(C)cc23)CC1 [Compound 835] | – | > 10 | – | – | – | > 10 | > 10 | > 10 | > 10 | – | – | > 10 | > 10 |
| Cc1cn2cc(NC(=O)c3c(F)cc(N4CCC(N(C)C)CC4)c4cn(C)nc34)nc2c(C)n1 [Compound 356, 4-[4-(dimethylamino)-1-piperidyl]-N-(6,8-dimethylimidazo[1,2-a]pyrazin-2-yl)-6-fluoro-2-methyl-indazole-7-carboxamide] | 1 to 10 | 1 to 10 | 1 to 10 | 0.1 to 1 | 0.1 to 1 | – | – | – | – | 1 to 10 | < 0.1 | – | – |
| CCNC1(C)CCN(c2ccc(C(=O)Nc3cn4cc(C)nc(CNS(C)(=O)=O)c4n3)c3nn(C)cc23)CC1 [Compound 864] | – | > 10 | – | – | – | > 10 | > 10 | 1 to 10 | 1 to 10 | – | – | > 10 | 1 to 10 |
| Cc1cn2cc(NC(=O)c3ccc(N4CCCC(OC5CNC5)C4)c4cn(C)nc34)nc2c(C)n1 (stereo not shown) [Compound 601] | – | > 10 | > 10 | > 10 | – | > 10 | – | – | > 10 | – | – | > 10 | 1 to 10 |
| Cc1cn2cc(NC(=O)c3ccc(N4C[C@@H](C)N[C@@H](C)C4)c4c3OC(F)(F)O4)cc(F)c2n1 [Compound 651, 7-[(3R,5S)-3,5-dimethylpiperazin-1-yl]-2,2-difluoro-N-(8-fluoro-2-methylimidazo[1,2-a]-pyridin-6-yl)-1,3-benzodioxole-4-carboxamide] | – | > 10 | – | – | – | > 10 | > 10 | > 10 | > 10 | – | – | > 10 | > 10 |
| Cn1cc2cc(NC(=O)c3ccc(N4CCC(NC5CC5)CC4)c4cn(C)nc34)cc(CNc3ncco3)c2n1 [Compound 880] | – | 1 to 10 | – | – | – | > 10 | > 10 | 1 to 10 | 1 to 10 | – | – | > 10 | 1 to 10 |
| Cc1cn2cc(NC(=O)c3c(F)cc(N4CCC(NC5CC5)CC4)c4cn(C)nc34)cc(Oc3cn[nH]c3)c2n1 [Compound 410, N-(8-((1H-pyrazol-4-yl)oxy)-2-methylimidazo[1,2-a]-pyridin-6-yl)-4-(4-(cyclopropylamino)piperidin-1-yl)-6-fluoro-2-methyl-2H-indazole-7-carboxamide 2,2,2-trifluoroacetate] | > 10 | > 10 | > 10 | > 10 | > 10 | – | – | – | – | > 10 | > 10 | – | – |
| CNc1cc(N2CCC(NC3CC3)CC2)c2cn(C)nc2c1C(=O)Nc1cc2cn(C)nc2cc1OC [Compound 435, 2,2,2-trifluoroacetate] | > 10 | 1 to 10 | > 10 | > 10 | > 10 | – | – | – | – | > 10 | > 10 | – | – |
